Experimental data published in US4758558A, “N-(substituted)-[7-(2-cyanoacetamido)cephalosporanic]amide derivatives having antibiotic utility” (priority 1982, dated 1988).

Legend:
[1] = system: Pseudomonas aeruginosa; assay: Effect on intestinal bacteria: number of Pseudomonas aeruginosa in feces; assay type: in vivo, ICR mice; settings: mouse, in vivo, po, 500 mg/kg/day
Description: (§1) Effects of the present compound on intestinal bacteria
(§2) Each of the present compounds respectively produced in Examples 1 to 18 was orally administered continuously for 2 days at a daily dose rate of 500 mg/kg body weight to each of five female ICR mice of each group after 6 weeks of their birth.
(§3) Each of the two fecal specimens respectively collected from each mouse before and after one day of the administration was diluted with 100 times by weight of an anaerobic diluent (a phosphoric acid buffer solution) and was ground in a mortar, and 0.1 ml of the thus ground material was smeared on each of the following culture media for the following bacteria, and the thus inoculated culture media were incubated under the following conditions. Thereafter, the number of the following bacteria in each of the thus cultured media was determined.
NAC agar 37° C., one day, […]

[2] = system: a species of Lactobacillus; assay: Effect on intestinal bacteria: number of a sp. of Lactobacillus in feces; assay type: in vivo, ICR mice; settings: mouse, in vivo, po, 500 mg/kg/day
Description: (§4) (b) Effect on the intestinal bacterial colonies: […]
as §1, §2, §3
a species of Lactobacillus
LBS agar 37° C., 5 days, […]

[3] = system: Staphylococcus aureus IAM 1011; assay: Antibacterial activity in vitro (MIC) against Staphylococcus aureus; assay type: cell-based; settings: IAM1011, Mueller-Hinton agar, 18 to 24 hours, 37° C., read-out: MIC (minimum growth inhibiting concentration) against Staphylococcus aureus
Description: (§5) (c) Anti-bacterial activity (in vitro):
(§6) Minimum concentration of the present compound inhibiting the growth of the following bacteria was determined according to the standard procedures of Japan Society of Chemotherapy:
Staphylococcus aureus IAM 1011
(§7) Determination of the antibacterial activity of the present compound produced in Examples 1 to 18, respectively was carried out according to the standard procedures of Japan Society of Chemotherapy for finding MIC (the minimum concentration of a specimen to inhibit the growth of a species of bacteria).
(§8) A series of diluted solutions of each of the present compound were mixed with 9 times by weight of Mueller-Hinton's culture medium as the culture medium for determining the sensitivity of a bacterial species, and flat agar culture plates were prepared by using the thus obtained mixture.
(§9) Each of the liquids respectively containing one of the bacterial species shown in Table 2 was smeared onto each of the thus prepared flat agar culture plates with a platinum loop, in length of about 2 cm, and the thus treated plates were incubated for 18 to 24 hours at 37° C. Thereafter, by observing the growth state of each bacterial species on the cultured plates, the minimum concentration of each compound completely inhibiting the growth of each bacterial species was found.

[4] = system: Escherichia coli; assay: Effect on intestinal bacteria: number of Escherichia coli in feces; assay type: in vivo, ICR mice; settings: after oral administration for 2 days, 500 mg/kg/day, female ICR mice; before: 6.4
Description: (b) Effect on the intestinal bacterial colonies:
[…] Each portion of the two kinds of the feces was cultured at 25° C. or 37° C. in a variety of culture medium for one to five days to see the state of Escherichia coli, Pseudomonas aeruginosa, a Streptococcus species, a Lactobacillus species, Lactobacillus bifidus and a Bacteroides species in the culture medium.
as §1
as §3, with “specimens respectively collected from each mouse before and after one day of the administration was diluted with 100 times” left out

[5] = system: Lactobacillus bifidus; assay: Effect on intestinal bacteria: number of Lactobacillus bifidus in feces; assay type: in vivo, ICR mice; settings: mouse, in vivo, po, 500 mg/kg/day
Description: as §4, §1, §2, §3
BS agar 37° C., 5 days, […]

[6] = system: a species of Bacteroides; assay: Effect on intestinal bacteria: number of a sp. of Bacteroides in feces; assay type: in vivo, ICR mice; settings: mouse, in vivo, po, 500 mg/kg/day
Description: as §4, §1, §2, §3
a species of Bacteroides
NBGT agar 37° C., 5 days, […]

[7] = system: a species of Streptococcus; assay: Effect on intestinal bacteria: number of a sp. of Streptococcus in feces; assay type: in vivo, ICR mice; settings: mouse, in vivo, po, 500 mg/kg/day
Description: as §4, §1, §2, §3
a species of Streptococcus
TATAC agar 37° C., one day, […]

[8] = system: Escherichia coli IFO 12734; assay: Treatment of experimental infectious disease in mouse due to Escherichia coli; assay type: in vivo, ddY SPE mice; settings: oral, two times just after and 4 hours after inoculation; 1.4×10^8 cells i.p.
Description: (§10) (e) Effectiveness in treating experimental infectious disease due to bacteria:
(§11) (Refer to Example 22 for the details of the test.) As the result, while all the twenty mice artificially infected with each of the two bacterial species and not-treated with any of the present compound died on the second day of inoculation, more than 40% of the twenty mice artificially infected with each of the two bacterial species and administered with each of the three present compounds were alive even after 7 days of inoculation.
(§12) Effectiveness of the present compound in treatment of an experimental infectious disease in mouse
(1) Disease due to infection of Escherichia coli
(§13) Each mouse of the two groups (20 animals/group) of ddY SPE mice was inoculated with 1.4×10^8 cells of Escherichia coli IFO 12734 intraperitoneally, and then, each mouse of the one of the two groups was administered orally with one of the present compounds, namely the compound produced in Example 5, 10 or 13, two times just after and 4 hours after the inoculation, while the 20 mice of the other group were not administered.

[9] = system: Staphylococcus aureus IAM 1011; assay: Treatment of experimental infectious disease in mouse due to Staphylococcus aureus; assay type: in vivo, ddY SPE mice; settings: oral, two times just after and 4 hours after inoculation; 2.3×10^8 cells i.p.
Description: as §10, §11, §12
(2) Disease due to infection of Staphylococcus aureus
as §13, with “2.3×10^8” for “1.4×10^8”, “Staphylococcus aureus IAM 1011” for “Escherichia coli IFO 12734”

[10] = system: Escherichia coli IFO 12734; assay: Antibacterial activity in vitro (MIC) against Escherichia coli; assay type: cell-based; settings: IFO12734, Mueller-Hinton agar, 18 to 24 hours, 37° C., read-out: MIC (minimum growth inhibiting concentration) against Escherichia coli
Description: as §5, §6
Escherichia coli IFO 12734 and
as §7, §8, §9

SMILES | Number of Pseudomonas aeruginosa after the administration [1] | Number of a sp. of Lactobacillus after the administration [2] | MIC [3] [µg/mL] | Number of Escherichia coli after the administration [4] | Number of Lactobacillus bifidus after the administration [5] | Number of a sp. of Bacterioides after the administration [6] | Number of a sp. of Streptococcus after the administration [7] | mice alive on the 7th day of inoculation (Escherichia coli infection) [8] | mice alive on the 7th day of inoculation (Staphylococcus aureus infection) [9] | MIC [10] [µg/mL]
COC(=O)CNC(=O)c1ccc(NC(=O)C2=C(C)CSC3C(NC(=O)[C@H](N)c4ccccc4)C(=O)N23)cc1 (stereo partly drawn) [Example 5, N-(4-carbomethoxymethylcarbamoylphenyl)-[7-(D-alpha-aminophenylacetamido)desacetoxycephalosporanic]amide] | < 3.0 Log10 (number of bacteria/g feces) | 8.9 Log10 (number of bacteria/g feces) | ≥ 100 | 6.5 Log10 (number of bacteria/g feces) | 8.4 Log10 (number of bacteria/g feces) | 8.4 Log10 (number of bacteria/g feces) | 6.7 Log10 (number of bacteria/g feces) | more than 60% | more than 65% | ≥ 100
CC(=O)OCC1=C(C(=O)Nc2ccc(C)cc2)N2C(=O)C(NC(=O)CC#N)C2SC1 (stereo not drawn) [Example 10, N-(4-methylphenyl)-[7-(2-cyanoacetamido)caphalosporanic]amide] | < 3.0 Log10 (number of bacteria/g feces) | 9.0 Log10 (number of bacteria/g feces) | ≥ 100 | 6.8 Log10 (number of bacteria/g feces) | 8.2 Log10 (number of bacteria/g feces) | 8.9 Log10 (number of bacteria/g feces) | 6.8 Log10 (number of bacteria/g feces) | more than 80% | more than 85% | ≥ 100
COC(=O)c1ccc(NC(=O)C2=C(CSc3nnc(C)s3)CSC3C(NC(=O)Cn4cnnn4)C(=O)N23)cc1 (stereo not drawn) [Example 13, N-(4-carbomethoxyphenyl)-{7-(1-1H-tetrazolylacetamido)-3-[2-(5-methyl-1,3,4-thiadiazolyl)thiomethyl]-3-cephem-4-carboxylic}amide] | < 3.0 Log10 (number of bacteria/g feces) | 9.0 Log10 (number of bacteria/g feces) | ≥ 12.5 | 6.4 Log10 (number of bacteria/g feces) | 8.4 Log10 (number of bacteria/g feces) | 8.7 Log10 (number of bacteria/g feces) | 6.6 Log10 (number of bacteria/g feces) | more than 80% | more than 60% | ≥ 100
